Values after ≈ are worked out from the molar mass of the structure shown. Active and inactive are the calls of the source. No cut-off for these calls is given here.
What was measured:
Mus musculus [1] = test: Anti-inflammatory activity against subcutaneous abscess ICR mouse model infected with methicillin-resistant Staphylococcus aureus assessed as reduction in TNF-alpha level at 25 mg/kg, sc measured at 48 hrs post-injection by ELISA method; assay type: functional, organism-based
Cell membrane [2] = test: Disruption of cell membrane in methicillin-resistant Staphylococcus aureus assessed as PI-positive bacteria at 8 times MIC measured after 30 mins by PI staining based flow cytometry analysis (reference value: 7.49 %); assay type: subcellular
Staphylococcus aureus [3] = test: Antibacterial activity against methicillin-resistant Staphylococcus aureus infected in ICR mouse model of subcutaneous abscess assessed as reduction in infiltration of inflammatory cells at 25 mg/kg, sc measured at 48 hrs post-injection by H and E/Masson staining based analysis; assay type: functional, organism-based
Cell membrane [4] = test: Disruption of cell membrane in methicillin-resistant Staphylococcus aureus at 4 times MIC measured after 4 hrs by scanning electron microscopic analysis; assay type: subcellular
Staphylococcus aureus [5] = test: Antibacterial activity against methicillin-resistant Staphylococcus aureus infected in ICR mouse model of subcutaneous abscess assessed as effect on skin abscesses at 25 mg/kg, sc measured at 48 hrs post-injection; assay type: functional, organism-based
Staphylococcus aureus [6] = test: Antimicrobial activity against Methicillin-resistant Staphylococcus aureus assessed as reduction in bacterial growth at 4 times MIC measured for 0.5 to 24 hrs by time-kill kinetics assay; assay type: functional, organism-based; conditions: time 0.5-24 hrs
L929 = test: Cytotoxicity against mouse L929 cells assessed as reduction in cell viability at 100 microg/mL incubated for 24 hrs by MTT assay; assay type: toxicity, cell-based; conditions: l929, 24 h, dose 100 µg/ml
Staphylococcus aureus [7] = test: Antimicrobial activity against Staphylococcus aureus ATCC 25923 assessed as inhibition of bacterial growth measured after 20 hrs by CLSI protocol based Muller Hinton broth assay; assay type: functional
Cell membrane [8] = test: Disruption of cell membrane in methicillin-resistant Staphylococcus aureus assessed as PI-positive bacteria at 4 times MIC measured after 30 mins by PI staining based flow cytometry analysis (reference value: 7.49 %); assay type: subcellular
Staphylococcus aureus [9] = test: Antimicrobial activity against Methicillin-resistant Staphylococcus aureus ATCC 43300 assessed as inhibition of bacterial growth measured after 20 hrs by CLSI protocol based Muller Hinton broth assay; assay type: functional
Escherichia coli [10] = test: Antimicrobial activity against Escherichia coli ATCC 25922 assessed as inhibition of bacterial growth measured after 20 hrs by CLSI protocol based Muller Hinton broth assay; assay type: functional
Staphylococcus aureus [11] = test: Antibacterial activity against methicillin-resistant Staphylococcus aureus infected in ICR mouse model of subcutaneous abscess assessed as effect on lesions at 25 mg/kg, sc measured at 48 hrs post-injection; assay type: functional, organism-based
[12] = Toxicity in ICR mouse assessed as pathological change in heart at 25 mg/kg, sc administered as single dose and measured at 2 hrs post-infection by H and E staining based analysis; assay type: organism-based; conditions: in vivo
[13] = Toxicity in ICR mouse assessed as pathological change in liver at 25 mg/kg, sc administered as single dose and measured at 2 hrs post-infection by H and E staining based analysis; assay type: organism-based; conditions: in vivo
Staphylococcus aureus [14] = test: Antimicrobial activity against Methicillin-resistant Staphylococcus aureus ATCC 33591 measured after 5 to 25 passages at sub-MIC incubated for 12 hrs; assay type: functional, organism-based
Staphylococcus aureus [15] = test: Antibacterial activity against methicillin-resistant Staphylococcus aureus infected in ICR mouse model of subcutaneous abscess assessed as bacterial load at 25 mg/kg, sc measured at 48 hrs post-injection; assay type: functional
Staphylococcus aureus [16] = test: Antibacterial activity against methicillin-resistant Staphylococcus aureus infected in ICR mouse model of subcutaneous abscess assessed as reduction in IL-6 level at 25 mg/kg, sc measured at 48 hrs post-injection by ELISA method; assay type: functional, organism-based
[17] = Toxicity in ICR mouse assessed as pathological change in lung at 25 mg/kg, sc administered as single dose and measured at 2 hrs post-infection by H and E staining based analysis; assay type: organism-based; conditions: in vivo
[18] = Toxicity in ICR mouse assessed as pathological change in skin at 25 mg/kg, sc administered as single dose and measured at 2 hrs post-infection by H and E staining based analysis; assay type: organism-based; conditions: in vivo
Enterococcus gallinarum = test: Antimicrobial activity against Enterococcus gallinarum ATCC 49573 assessed as inhibition of bacterial growth measured after 20 hrs by CLSI protocol based Muller Hinton broth assay; assay type: functional
[19] = Hemolytic activity in Sprague-Dawley rat Red blood cells at 200 ug/ml incubated for 1 hr by absorbance based analysis; assay type: toxicity, cell-based; conditions: erythrocyte, dose 200 µg/ml
[20] = Toxicity in ICR mouse assessed as compatible skin at 25 mg/kg, sc administered as single dose and measured at 2 hrs post-infection by H and E staining based analysis; assay type: organism-based; conditions: in vivo
Mus musculus [21] = test: Anti-inflammatory activity against subcutaneous abscess ICR mouse model infected with methicillin-resistant Staphylococcus aureus assessed as reduction in IL-6 level at 25 mg/kg, sc measured at 48 hrs post-injection by ELISA method; assay type: functional, organism-based
Escherichia coli [22] = test: Antimicrobial activity against Escherichia coli ATCC 25922 measured after 5 to 25 passages at sub-MIC incubated for 12 hrs; assay type: functional, organism-based
Cell membrane [23] = test: Disruption of cell membrane in methicillin-resistant Staphylococcus aureus at 8 times MIC measured after 4 hrs by scanning electron microscopic analysis; assay type: subcellular
Staphylococcus aureus [24] = test: Antimicrobial activity against Methicillin-resistant Staphylococcus aureus assessed as reduction in bacterial growth at 4 times MIC measured after 8 hrs by time-kill kinetics assay relative to control; assay type: functional; parameters: scale not given: the % may be the effect or the level left
Enterococcus faecalis = test: Antimicrobial activity against Enterococcus faecalis ATCC 19433 assessed as inhibition of bacterial growth measured after 20 hrs by CLSI protocol based Muller Hinton broth assay; assay type: functional
Staphylococcus aureus [25] = test: Antimicrobial activity against Methicillin-resistant Staphylococcus aureus assessed as reduction in bacterial load at 4 times MIC measured after 4 hrs by time-kill kinetics assay; assay type: functional
Pseudomonas aeruginosa = test: Antimicrobial activity against Pseudomonas aeruginosa ATCC 27853 assessed as inhibition of bacterial growth measured after 20 hrs by CLSI protocol based Muller Hinton broth assay; assay type: functional
Acinetobacter baumannii = test: Antimicrobial activity against Acinetobacter baumannii ATCC 19606 assessed as inhibition of bacterial growth measured after 20 hrs by CLSI protocol based Muller Hinton broth assay; assay type: functional
Cell membrane [26] = test: Disruption of cell membrane in methicillin-resistant Staphylococcus aureus assessed as PI-positive bacteria at 2 times MIC measured after 30 mins by PI staining based flow cytometry analysis (reference value: 7.49 %); assay type: subcellular
Staphylococcus aureus [27] = test: Antibacterial activity against methicillin-resistant Staphylococcus aureus infected in ICR mouse model of subcutaneous abscess assessed as bacterial elimation at 25 mg/kg, sc measured at 48 hrs post-injection relative to control; assay type: functional
[28] = Toxicity in ICR mouse assessed as pathological change in kidney at 25 mg/kg, sc administered as single dose and measured at 2 hrs post-infection by H and E staining based analysis; assay type: organism-based; conditions: in vivo
[29] = Toxicity in ICR mouse assessed as pathological change in spleen at 25 mg/kg, sc administered as single dose and measured at 2 hrs post-infection by H and E staining based analysis; assay type: organism-based; conditions: in vivo

In the case of `O=C(O)c1cn(C2CC2)c2cc(N3CCNCC3)c(F)cc2c1=O` [CIPROFLOXACIN], the Activity (Mus musculus [1]) is reported as “Active”, the Activity (Cell membrane [2]) is reported as 9.46% and the Activity (Staphylococcus aureus [3]) is reported as “Active; Partial Reduction In Inflammation”. For the same compound, the Activity (Cell membrane [4]) was “inactive”, the Activity (Staphylococcus aureus [5]) was “inactive” and the Activity (Staphylococcus aureus [6]) was “inactive”. For the same compound, the Activity (L929) was “Non-toxic”.

For `CCCCCCCCCNC(=O)[C@H](CCCCN)NC(=O)[C@H](CCCNC(=N)N)NC(=O)[C@H](CCCCN)NC(=O)c1ccc(C(=O)N2CCN(c3cc4c(cc3F)c(=O)c(C(=O)O)cn4C3CC3)CC2)cc1`, the Activity (Mus musculus [1]) was “Active”, the Activity (Cell membrane [2]) was 58.4% and the Activity (Staphylococcus aureus [3]) was “Active”. The MIC (Staphylococcus aureus [7]) was 1.56 µg/mL (≈ 1.53 µM), the Activity (Cell membrane [8]) was 26.8% and the MIC (Staphylococcus aureus [9]) was 6.25 µg/mL (≈ 6.14 µM). For the same compound, the MIC (Escherichia coli [10]) was 3.12 µg/mL (≈ 3.07 µM), the Activity (Staphylococcus aureus [11]) was “Active” and the Activity [12] was “Non-toxic”. The Activity [13] was “Non-toxic”, the Activity (Staphylococcus aureus [14]) was “Active” and the Activity (Cell membrane [4]) was “Active”. For the same compound, the Activity (Staphylococcus aureus [15]) was 4.4 log10CFU/ml, the Activity (Staphylococcus aureus [16]) was “Active” and the Activity [17] was “Non-toxic”. For the same compound, the Activity [18] was “Non-toxic”, the MIC (Enterococcus gallinarum) was 12.5 µg/mL (≈ 12.3 µM) and the Activity [19] was “Non-toxic”. The Activity [20] was “Non-toxic”, the Activity (Mus musculus [21]) was “Active” and the Activity (Escherichia coli [22]) was “Active”. The Activity (Cell membrane [23]) was “Active”, the Activity (Staphylococcus aureus [24]) was 100% and the MIC (Enterococcus faecalis) was 12.5 µg/mL (≈ 12.3 µM). For the same compound, the Activity (Staphylococcus aureus [25]) was 3.6 log10CFU/ml, the MIC (Pseudomonas aeruginosa) was 3.12 µg/mL (≈ 3.07 µM) and the MIC (Acinetobacter baumannii) was 6.25 µg/mL (≈ 6.14 µM). For the same compound, the Activity (Cell membrane [26]) was 12%, the Activity (L929) was “Non-toxic” and the Activity (Staphylococcus aureus [27]) was 99.99%. For the same compound, the Activity [28] was “Non-toxic” and the Activity [29] was “Non-toxic”.

Reference: ChEMBL document CHEMBL6134830, “Naturally inspired chimeric quinolone derivatives to reverse bacterial drug resistance” (Eur J Med Chem, 2025)
